Measurements reported in PubChem BioAssay (NCI).
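Tested at 5 concentrations; 48 h exposure; 96-well plates; endpoints linearly interpolated, else capped at highest concentration. GI50 = concentration required for 50% inhibition of growth. Definition used: TGI = concentration required for complete inhibition of growth.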

Columns and labels:
Test in all cases: inhibition of tumour cell growth, NCI panel, 48 h
[1] = system: SK-MEL-28 melanoma
[2] = system: NCI-H23 lung
[3] = system: T-47D breast
[4] = system: SN12C renal
[5] = system: HOP-62 NSCLC
[6] = system: HL-60(TB) leukemia
[7] = system: BT-549 breast
[8] = system: KM12 colon
[9] = system: MALME-3M melanoma
[10] = system: OVCAR-5 ovarian
[11] = system: NCI-H226 lung
[12] = system: DU-145 prostate
[13] = system: SF-539 CNS
[14] = system: M14 melanoma
[15] = system: UO-31 renal
[16] = system: PC-3 prostate
[17] = system: NCI-H522 lung
[18] = system: OVCAR-3 ovarian
[19] = system: SNB-75 CNS
[20] = system: NCI-H460 lung
[21] = system: A498 renal
[22] = system: COLO 205 colon
[23] = system: NCI/ADR-RES ovarian
[24] = system: MDA-MB-231 breast
[25] = system: SR leukemia
[26] = system: RPMI-8226 leukemia
[27] = system: SK-MEL-2 melanoma
[28] = system: HS 578T breast
[29] = system: OVCAR-8 ovarian

## CCO/C=N/C1=C(C#N)C(c2ccc(F)cc2)c2sc3c(C)cccc3c2O1 (stereo not drawn)
[1]
  GI50: 1400 nM
  TGI: 20600 nM
[2]
  GI50: 517 nM
  TGI: 14700 nM
[3]
  GI50: 818 nM
  TGI: 66900 nM
[4]
  GI50: 534 nM
  TGI: 13900 nM
[5]
  GI50: 423 nM
  TGI: 15800 nM
[6]
  GI50: 340 nM
  TGI: 12900 nM
[7]
  GI50: 751 nM
  TGI: 5630 nM
[8]
  GI50: 389 nM
  TGI: 14700 nM
[9]
  GI50: 10600 nM
  TGI: 24800 nM
[10]
  GI50: 574 nM
  TGI: 16400 nM
[11]
  GI50: 1290 nM
  TGI: 12100 nM
[12]
  GI50: 434 nM
  TGI: 14200 nM
[13]
  GI50: 243 nM
  TGI: 1540 nM
[14]
  GI50: 316 nM
  TGI: 12200 nM
[15]
  GI50: 572 nM
  TGI: 15900 nM
[16]
  GI50: 386 nM
  TGI: 14800 nM
[17]
  GI50: 214 nM
  TGI: 11700 nM
[18]
  GI50: 379 nM
  TGI: 11900 nM
[19]
  GI50: 114 nM
  TGI: 2640 nM
[20]
  GI50: 367 nM
  TGI: 11100 nM
[21]
  GI50: 261 nM
  TGI: 1480 nM
[22]
  GI50: 401 nM
  TGI: 2250 nM
[23]
  GI50: 220 nM
  TGI: 12700 nM
[24]
  GI50: 531 nM
  TGI: 17600 nM
[25]
  GI50: 524 nM
  TGI: 60100 nM
[26]
  GI50: 371 nM
  TGI: 11000 nM
[27]
  GI50: 726 nM
  TGI: 20700 nM
[28]
  GI50: 325 nM
  TGI: 14800 nM
[29]
  GI50: 499 nM
  TGI: 20300 nM
